Assay results from patent US20230044787A1, “TRICYCLE DIHYDROIMIDAZOPYRIMIDONE DERIVATIVE, PREPARATION METHOD THEREOF, PHARMACEUTICAL COMPOSITION AND USE THEREOF” (priority 2019, published 2023).
pIC50: −log10 of the molar value.

These compounds were tested against T1, Lp-PLA2 (Homo sapiens, UniProt Q13093) (assay: Lipoprotein-associated phospholipase A2 (Lp-PLA2) human plasma assay (Thio-PAF assay)). Conditions: Lp-PLA2 human plasma assay (Thio-PAF), pooled human plasma, 30-min pre-incubation at room temperature.
T1 construct: aliquoted and thawed 40 μL of pooled human plasma was previously added; from tissue; host or cells: pooled human plasma
T1 sequence (Q13093 22-441): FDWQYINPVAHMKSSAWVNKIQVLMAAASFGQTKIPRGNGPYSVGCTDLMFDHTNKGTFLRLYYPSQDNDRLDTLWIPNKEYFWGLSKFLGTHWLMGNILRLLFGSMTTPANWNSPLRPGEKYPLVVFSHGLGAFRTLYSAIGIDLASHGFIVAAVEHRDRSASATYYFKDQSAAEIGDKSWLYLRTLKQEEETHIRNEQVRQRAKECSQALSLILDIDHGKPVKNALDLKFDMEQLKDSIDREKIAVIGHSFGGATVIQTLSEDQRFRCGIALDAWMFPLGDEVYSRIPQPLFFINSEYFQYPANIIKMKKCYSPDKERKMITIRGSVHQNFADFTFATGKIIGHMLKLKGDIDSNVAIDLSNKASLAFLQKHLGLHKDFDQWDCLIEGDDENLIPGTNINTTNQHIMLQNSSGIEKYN
Type: biochemical

pIC50 | Structure (SMILES)
8.62 | COCC12CN3c4cc(OCc5ccc(Oc6ccnc(C(F)(F)F)c6)c(F)c5)nc(=O)n4CC3(C1)C2 [Example 138, 3-((3-fluoro-4-((2-(trifluoromethyl)pyridin-4-yl)oxy)benzyl)oxy)-7-(methoxymethyl)-7,8-dihydro-1H,6H,9H-7,8a-methanopyrrolo[1′,2′:3,4] imidazo[1,2-c]pyrimidin-1-one]
8.30 | O=c1nc(OCc2ccc(Oc3cccc(C(F)(F)F)c3)c(F)c2)cc2n1CC13CCC(CC1)N23 [Example 126, 3-((3-fluoro-4-(3-(trifluoromethyl)phenoxy)benzyl)oxy)-7,8-dihydro-1H,6H,9H-6,8a-ethanopyrrolo[1′,2′:3,4] imidazo[1,2-c]pyrimidin-1-one]
6.77 | O=c1nc(OCc2ccc(Oc3ccc(F)c(C(F)(F)F)c3)nc2)cc2n1CC13CCC(CC1)N23 [Example 49, 3-((6-(4-fluoro-3-(trifluoromethyl)phenoxy)pyridin-3-yl)methoxy)-7,8-dihydro-1H,6H,9H-6,8a-ethanopyrrolo[1′,2′:3,4] imidazo[1,2-c]pyrimidin-1-one]
8.62 | CC12CCCN1c1cc(OCc3ccc(Oc4cccc(C(F)(F)F)c4)c(C#N)c3)nc(=O)n1C2 (stereo not drawn) [Example 59, 5-(((8a-methyl-1-oxo-7,8,8a,9-tetrahydro-1H,6H-pyrrolo[1′,2′:3,4]imidazo [1,2-c]pyrimidin-3-yl)oxy)methyl)-2-(3-(trifluoromethyl)phenoxy) benzonitrile]
8.24 | O=c1nc(OCc2ccc(Oc3ccnc(C(F)(F)F)c3)c(F)c2)cc2n1CC13CC(CN21)C3 [Example 113, 3-((3-fluoro-4-((2-(trifluoromethyl)pyridin-4-yl)oxy)benzyl)oxy)-7,8-dihydro-1H,6H,9H-7,8a-methanopyrrolo[1′,2′:3,4] imidazo[1,2-c]pyrimidin-1-one]
8.04 | O=c1nc(OCc2ccc(Oc3ccc(C(F)(F)F)nc3)c(F)c2)cc2n1CC13CC(CN21)C3 [Example 117, 3-((3-fluoro-4-((6-(trifluoromethyl)pyridin-3-yl)oxy)benzyl)oxy)-7,8-dihydro-1H,6H,9H-7,8a-methanopyrrolo[1′,2′:3,4] imidazo[1,2-c]pyrimidin-1-one]
8.39 | O=c1nc(OCc2ccc(Oc3ccnc(C(F)(F)F)c3)c(F)c2)cc2n1CC13CCC(CC1)N23 [Example 149, 3-((3-fluoro-4-((2-(trifluoromethyl)pyridin-4-yl)oxy)benzyl)oxy)-7,8-dihydro-1H,6H,9H-6,8a-ethanopyrrolo[1′,2′:3,4] imidazo[1,2-c]pyrimidin-1-one]
8.34 | O=c1nc(OCc2ccc(Oc3ccc(Cl)c(C(F)(F)F)c3)c(F)c2)cc2n1C[C@]13CO[C@H](CN21)C3 [Example 14, (3S,11aR)-7-((4-(4-chloro-3-(trifluoromethyl)phenoxy)-3-fluorobenzyl)oxy)-3,4-dihydro-1H,9H,11H-3,11a-methanopyrimido[6′,1′:2,3] imidazo[5,1-c][1,4]oxazin-9-one]
8.51 | O=c1nc(OCc2ccc(Oc3ccnc(C(F)(F)F)c3)c(F)c2)cc2n1CC13CC(CCN21)C3 [Example 165, 3-((3-fluoro-4-((2-(trifluoromethyl)pyridin-4-yl)oxy)benzyl)oxy)-6,7,8,9-tetrahydro-1H,10H-8,9a-methano-pyrido[1′,2′:3,4] imidazo[1,2-c]pyrimidin-1-one]
8.57 | N#Cc1cc(COc2cc3n(c(=O)n2)CC24CCC(CC2)N34)ccc1Oc1ccc(Cl)c(C(F)(F)F)c1 [Example 50, 5-(((1-oxo-7,8-dihydro-1H,6H,9H-6,8a-ethanopyrrolo[1′,2′:3,4]imidazo[1,2-c]pyrimidin-3-yl)oxy)methyl)-2-(4-chloro-3-(trifluoromethyl)phenoxy) benzonitrile]
8.70 | CC12COCCN1c1cc(OCc3cc(F)c(Oc4ccc(Cl)c(C(F)(F)F)c4)c(F)c3)nc(=O)n1C2 (stereo not drawn) [Example 82, 7-((4-(4-chloro-3-(trifluoromethyl)phenoxy)-3,5-difluorobenzyl)oxy)-11a-methyl-3,4,11,11a-tetrahydro-1H,9H-pyrimido[6′,1′:2,3]imidazo [5,1-c][1,4]oxazin-9-one]
8.41 | N#Cc1cc(COc2cc3n(c(=O)n2)CC24CC(CN32)C4)ccc1Oc1ccc(Cl)c(C(F)(F)F)c1 [Example 41]
8.29 | CC12COCCN1c1cc(OCc3cc(F)c(Oc4ccc(C(F)(F)F)nc4)c(F)c3)nc(=O)n1C2 (stereo not drawn) [Example 81, 7-((3,5-difluoro-4-((6-(trifluoromethyl)pyridin-3-yl)oxy)benzyl)oxy)-11a-methyl-3,4,11,11a-tetrahydro-1H,9H-pyrimido[6′,1′:2,3]imidazo [5,1-c][1,4]oxazin-9-one]
8.31 | N#Cc1cc(COc2cc3n(c(=O)n2)CC24CC(CN32)C4)ccc1Oc1cccc(C(F)(F)F)c1 [Example 42]
8.28 | N#Cc1cc(COc2cc3n(c(=O)n2)C[C@@]24CO[C@@H](CN32)C4)ccc1Oc1ccnc(C(F)(F)F)c1 [Example 110, 5-((((3R,11aS)-9-oxo-3,4-dihydro-1H,9H,11H-3,11a-methanopyrimido[6′,1′:2,3]imidazo[5,1-c][1,4]oxazin-7-yl)oxy)methyl)-2-((2-(trifluoromethyl)pyridin-4-yl)oxy)benzonitrile]
8.21 | CC12COCCN1c1cc(OCc3ccc(Oc4ccc(Cl)c(C(F)(F)F)c4)c(C#N)c3)nc(=O)n1C2 (stereo not drawn) [Example 84]

More lines, now with the values behind:

Structure (SMILES) | pIC50
O=c1nc(OCc2cc(F)c(Oc3ccnc(C(F)(F)F)c3)c(F)c2)cc2n1C[C@]13CC[C@H](CN21)C3 [Example 123] | 8.36
O=C(c1ccccc1)N1C[C@]23C[C@H]1CN2c1cc(OCc2ccc(Oc4ccnc(C(F)(F)F)c4)c(F)c2)nc(=O)n1C3 [Example 174] | 8.30
O=c1nc(OCc2cc(F)c(Oc3cncc(C(F)(F)F)c3)c(F)c2)cc2n1C[C@@]13CO[C@@H](CN21)C3 [Example 29, (3R,11aS)-7-((3,5-difluoro-4-((5-(trifluoromethyl)pyridin-3-yl)oxy)benzyl)oxy)-3,4-dihydro-1H,9H,11H-3,11a-methanopyrimido[6′,1′:2,3] imidazo[5,1-c][1,4]oxazin-9-one] | 8.47
O=c1nc(OCc2ccc(Oc3ccc(C(F)(F)F)nc3)c(F)c2)cc2n1CC13CCC(CC1)N23 [Example 121, 3-((3-fluoro-4-((6-(trifluoromethyl)pyridin-3-yl)oxy)benzyl)oxy)-7,8-dihydro-1H,6H,9H-6,8a-ethanopyrrolo[1′,2′:3,4] imidazo[1,2-c]pyrimidin-1-one] | 8.07
COc1c(OCc2cc(F)c(F)c(F)c2)nc(=O)n2c1N1CC3CC1(C3)C2 [Example 151] | 8.24
O=C1N(Cc2ccccc2)[C@@H]2CN3c4cc(OCc5cc(F)c(Oc6ccnc(C(F)(F)F)c6)c(F)c5)nc(=O)n4C[C@]13C2 [Example 131] | 8.10
Cc1cc(Oc2ccc(COc3cc4n(c(=O)n3)CC35CCC(CC3)N45)cc2F)ccn1 [Example 120, 3-((3-fluoro-4-((2-methyl-pyridin-4-yl)oxy)benzyl)oxy)-7,8-dihydro-1H,6H,9H-6,8a-ethanopyrrolo[1′,2′:3,4] imidazo[1,2-c]pyrimidin-1-one] | 8.06
O=c1nc(OCc2cc(F)c(Oc3ccnc(Cl)c3)c(F)c2)cc2n1C[C@@]13CO[C@@H](CN21)C3 [Example 28, (3R,11aS)-7-((4-((2-chloropyridin-4-yl)oxy)-3,5-difluorobenzyl)oxy)-3,4-dihydro-1H,9H,11H-3,11a-methanopyrimido[6′,1′:2,3] imidazo[5,1-c][1,4]oxazin-9-one] | 8.14
O=c1nc(OCc2ccc(Oc3cnc(C(F)(F)F)nc3)c(F)c2)cc2n1CC13CC(CN21)C3 [Example 122, 3-((3-fluoro-4-((2-(trifluoromethyl)pyrimidin-5-yl)oxy)benzyl)oxy)-7,8-dihydro-1H,6H,9H-7,8a-methanopyrrolo[1′,2′:3,4] imidazo[1,2-c]pyrimidin-1-one] | 8.03
O=c1nc(OCc2ccc(F)c(F)c2)cc2n1CC13CC(CN21)C3 [Example 97, 3-((3,4-difluorobenzyl)oxy)-7,8-dihydro-1H,6H,9H-7,8a-methanopyrrolo[1′,2′:3,4] imidazo[1,2-c]pyrimidin-1-one] | 7.85
O=c1nc(OCc2cc(F)c(Oc3ccc(C(F)(F)F)nc3)c(F)c2)cc2n1C[C@@]13CO[C@@H](CN21)C3 [Example 30, (3R,11aS)-7-((3,5-difluoro-4-((6-(trifluoromethyl)pyridin-3-yl)oxy)benzyl)oxy)-3,4-dihydro-1H,9H,11H-3,11a-methanopyrimido[6′,1′:2,3] imidazo[5,1-c][1,4]oxazin-9-one] | 8.17
COc1c(OCCc2ccc(Oc3cccc(C(F)(F)F)c3)c(F)c2)nc(=O)n2c1N1CC3CC1(C3)C2 [Example 183, 3-(3-fluoro-4-(3-(trifluoromethyl)phenoxy)phenethoxy)-4-methoxy-7,8-dihydro-1H,6H, 9H-7,8a-methanopyrrolo[1′,2′:3,4]imidazo [1,2-c]pyrimidin-1-one] | 7.86
COc1c(N(C)Cc2ccc(F)c(F)c2)nc(=O)n2c1N1C[C@@H]3C[C@]1(CO3)C2 [Example 180] | 7.06
O=c1nc(OCc2cc(F)c(Oc3cccc(OC(F)(F)F)c3)c(F)c2)cc2n1C[C@]13CO[C@H](CN21)C3 [Example 145, (3S,11aR)-7-((3,5-difluoro-4-(3-(trifluoromethoxy)phenoxy)benzyl)oxy)-3,4-dihydro-1H,9H,11H-3,11a-methanopyrimido[6′,1′:2,3] imidazo[5,1-c][1,4]oxazin-9-one] | 8.37
